Data from patent publication US8062639B2 (priority 2008, dated 2011).

Legend:
conscious rats = format: in vivo, rat; conditions: for death after hemorrhage plus infusion / restoration of plasma/blood volume after hemorrhage: 20 ml/kg hemorrhage plus infusion of 2 mg/ml (5 ml/hr) (FIG. 3); for change in plasma volume, infusion alone: infusion of 2 mg/ml (5 ml/hr), no hemorrhage, 8 rats/group (FIG. 3)
soluble dog Na/K ATPase = target: T1, soluble dog Na/K ATPase (Canis lupus familiaris, UniProt P50997); assay: Na/K ATPase activity by pNPP conversion; format: biochemical; conditions: rate at 400 nm over 30 min, various concentrations (FIG. 2)
T1 construct: soluble Dog kidney Na/K ATPase; purchased SigmaAldrich; host or cells: dog kidney (the tissue is named only in the general description)

Row | SMILES | death after hemorrhage plus infusion (conscious rats) | restoration of plasma/blood volume after hemorrhage (conscious rats) | change in plasma volume, infusion alone (conscious rats) | inhibition of Na/K ATPase (conversion of pNPP to pNP) (soluble dog Na/K ATPase)
1 | C[C@]12CC[C@H](O)C[C@H]1CC[C@@H]1[C@@H]2CC[C@]2(C)[C@@H](c3ccc(=O)oc3)CC[C@]12O [Bufalin] | leads to death | prevents restoration | no effect on plasma volume | 
2 | C[C@]12CC[C@H](O)C[C@@]1(O)CC[C@@H]1[C@@H]2CC[C@]2(C)[C@@H](c3ccc(=O)oc3)C[C@H]3O[C@]132 [marinobufogenin] |  | did not have this effect |  | inhibits Na/K ATPase in a dose-response manner
3 | C[C@@H]1O[C@@H](O[C@H]2C[C@@H](O)[C@]3(CO)[C@H]4[C@H](O)C[C@]5(C)[C@@H](C6=CC(=O)OC6)CC[C@]5(O)[C@@H]4CC[C@]3(O)C2)[C@H](O)[C@H](O)[C@H]1O [ouabain] | leads to death | prevents restoration | no effect on plasma volume | inhibits Na/K ATPase in a dose-response manner
